# Source: PubChem BioAssay AID1159558 (GlaxoSmithKline (GSK), 2015)
# The source made the active and inactive calls.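 How the source made its calls: active means IC50 against T. cruzi CYP51 below a set limit; inactive means the rest.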
# Target: Sterol 14-alpha demethylase (Trypanosoma cruzi (strain CL Brener)) (UniProt Q7Z1V1)
# Experiment: TcCYP51 inhibitors, dose response, mechanism study for T. cruzi antiparasitic project, biochemical, recombinant enzyme (AID 1159558);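 further: enzyme in bacterial membranes with Anopheles gambiae CYP reductase and cytochrome b5 partners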
# Conditions: recombinant T. cruzi CYP51, BOMCC fluorescence
# Chain of Sterol 14-alpha demethylase (Trypanosoma cruzi (strain CL Brener)) (Q7Z1V1 whole entry, looked up): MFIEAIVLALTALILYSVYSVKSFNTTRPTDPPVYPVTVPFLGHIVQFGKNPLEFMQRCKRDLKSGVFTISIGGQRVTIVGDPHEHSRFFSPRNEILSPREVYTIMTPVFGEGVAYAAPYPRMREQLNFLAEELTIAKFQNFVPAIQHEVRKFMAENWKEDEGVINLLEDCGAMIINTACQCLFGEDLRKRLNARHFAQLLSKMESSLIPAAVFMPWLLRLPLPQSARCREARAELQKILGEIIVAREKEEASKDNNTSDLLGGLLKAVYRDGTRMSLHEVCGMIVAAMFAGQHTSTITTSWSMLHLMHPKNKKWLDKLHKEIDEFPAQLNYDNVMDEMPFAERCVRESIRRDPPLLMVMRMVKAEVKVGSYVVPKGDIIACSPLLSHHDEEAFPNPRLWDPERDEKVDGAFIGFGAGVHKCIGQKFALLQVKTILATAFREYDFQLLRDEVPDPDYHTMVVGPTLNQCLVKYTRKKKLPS
row,Compound,IC50
1,CCC(CC)C(=O)Nc1ccc(-c2nnc(-c3ccc(OC)cc3)o2)cc1,13 µM
2,O=C(c1cccc(Cl)c1Cl)N1CCn2c1nc(-c1ccncc1)cc2=O,0.063 µM
3,CN(C)Cc1ccc(-c2ccc(S(=O)(=O)NCC3CCCO3)c(F)c2)cc1 (configuration not stated),40 µM
4,Nc1nonc1-c1nc2cncc(C(=O)N3CC[C@H](N)C3)c2n1CC1CC1,13 µM
5,NS(=O)(=O)c1ccc(Nc2ncc3cccc(OC4CCNCC4)c3n2)cc1,> 100 µM (inactive)
6,O=C(COc1ncnc2cc([N+](=O)[O-])ccc12)NC(=O)NC1CCCCC1,> 100 µM (inactive)
7,CC(C)c1nn(-c2nc(N)nc(-c3ccccn3)n2)c(N)c1C1CCCCC1,3.2 µM
8,Oc1c(-c2n[nH]c(CCc3ccccc3)n2)ncc2cccnc12,> 100 µM (inactive)
9,CC1CCCCN1C(=O)NCCc1coc(-c2ccc(F)cc2)n1 (configuration not stated),> 100 µM (inactive)
10,N#Cc1cccc(CN2CCC(N(Cc3cccnc3)C(=O)c3cc(F)c(F)cc3F)CC2)c1,0.05 µM
11,CS(=O)(=O)NC1CCC(Nc2ncc(Br)c(Nc3ccccc3C(N)=O)n2)CC1 (configuration not stated),> 100 µM (inactive)
12,CCCCc1cc(Nc2cc(C3CCC3)[nH]n2)nc(N2CCC2C(N)=O)n1 (configuration not stated),> 100 µM (inactive)
13,c1ccc(Nc2nc3ccccc3[nH]2)nc1,> 100 µM (inactive)
14,O=C(NCCc1cccnc1)c1ccc(-c2ccccc2F)o1,0.063 µM
15,Cc1ccc(Nc2nc(C3CCCN3Cc3ccn[nH]3)cs2)nc1 (configuration not stated),6.3 µM
16,Cc1sc(C)c(C(F)(F)F)c1CNCCCNc1cc(=O)c2ccccc2[nH]1,20 µM
17,CC(=O)Nc1nc(-c2cc(C)ccc2C)c(C)s1,> 100 µM (inactive)
18,CNc1cncc(C2CCCN2C(=O)Cc2coc3cc(C)ccc23)n1 (configuration not stated),0.025 µM
19,COc1ccc2ncc(=O)n(CCN3CCC(NCc4ccc(-c5cccs5)cc4)CC3)c2n1,25 µM
20,O=C(Nc1ncc([N+](=O)[O-])s1)C1CC1,> 100 µM (inactive)
21,CCOc1ccc(NC(=O)c2ccc(NC(=O)NC3CCCCC3)cc2)cc1,> 100 µM (inactive)
22,Cc1ccc2nc(N(Cc3cccnc3)C(=O)CCc3ccccc3)sc2c1,0.063 µM
23,CC1=NN(C(=O)CCn2cnc([N+](=O)[O-])n2)C(O)(C(F)(F)F)C1 (configuration not stated),> 100 µM (inactive)
24,Cn1nccc1NC(=O)Cn1ccc(-c2ccncc2)n1,6.3 µM
25,Cc1c(Nc2cc(C3CC3)[nH]n2)ccc(C#N)c1Cl,20 µM

# Results, then the molecule that gave them:
row,IC50,Compound
1,32 µM,CN(C)S(=O)(=O)c1ccc(Cl)c(C(=O)Nc2nc(-c3ccccn3)cs2)c1
2,> 100 µM (inactive),COc1cc(OC)cc(C(=O)N[C@@H](CC(C)C)C(=O)NC2(C#N)CC2)c1
3,79 µM,CCCCn1c(=O)c2c(N)onc2n(CCCC)c1=O
4,16 µM,CC(C(=O)Nc1ccccc1F)N(C)CC(=O)Nc1cccc2ccccc12 (configuration not stated)
5,> 100 µM (inactive),Cc1nc2c(-c3nc(-c4ccc(N)cc4)n[nH]3)cccn2c1C
6,> 100 µM (inactive),Cc1ccc(S(C)(=O)=O)cc1Nc1nccc(-c2sc(N)nc2-c2ccccc2)n1
7,25 µM,CN(C)CCOc1ccc(N2CCN(S(=O)(=O)c3ccc(Cl)cc3)CC2)cc1
8,16 µM,Cc1ccccc1CNc1cc(C2CC2)nc(-c2nccn2C)n1
9,> 100 µM (inactive),c1ccc(-c2nc(NC3CCCCC3)cc(C3CC3)n2)nc1
10,1.3 µM,Nc1nccc(-c2csc(Nc3ccc(Cl)cc3)n2)n1
11,> 100 µM (inactive),COc1ccc(C(=O)Nc2cc(C(F)(F)F)ccc2N2CCOCC2)c(OC)c1
12,> 100 µM (inactive),CS(=O)(=O)N1CCC(Nc2ncc(Br)c(Nc3cccc(F)c3C(N)=O)n2)CC1
13,1.3 µM,Cc1cn[nH]c1C1CCCN(Cc2nc3ccccc3n2C)C1 (configuration not stated)
14,0.063 µM,COc1ccc2nc(N(Cc3cccnc3)C(=O)C3CCC3)sc2c1
15,0.05 µM,Cc1ccc2ccc(C(Nc3ccccn3)c3cccnc3)c(O)c2n1 (configuration not stated)
16,2.5 µM,O=C(Cc1ccc2c(c1)CCC2)Nc1n[nH]c(-c2ccccn2)n1
17,50 µM,CC(=O)NC1(c2ccccc2)CCN(CC(=O)Nc2ccccc2-c2ccccc2)CC1
